This is an account of results in patent publication US7744867B2, “PTPase inhibitors and method of using same” (The Cleveland Clinic Foundation, priority 2001, dated 2010).

A value given as a limit tells only on which side of the number the result lay.

One series has as its target T1, recombinant PRL-2 (Homo sapiens, UniProt Q12974).
T1 construct: made in house; host or cells: E. coli DH5α
T1 sequence (Q12974 1-167): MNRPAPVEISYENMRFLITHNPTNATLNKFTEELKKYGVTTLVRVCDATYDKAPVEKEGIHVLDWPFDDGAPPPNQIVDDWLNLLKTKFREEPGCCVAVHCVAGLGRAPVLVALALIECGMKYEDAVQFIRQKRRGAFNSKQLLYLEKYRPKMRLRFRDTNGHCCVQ
The series can be described thus: In vitro PTPase assay with recombinant PRL. The format is biochemical. Conditions: washing process / stable complex. The method, then:
In vitro PTPase activities were measured using the commercial protein tyrosine phosphatase assay kit (UBI) following established procedure. […] 100 μl of Malachite Green solution was added and incubated for 5 minutes, and the absorbance at 660 nm was measured after 5 minutes.
Recombinant GST fusion proteins of human PRL-1, 2 and 3 phosphatases were purified with glutathione beads from DH5α bacteria transformed by pGEX vectors containing cDNA fragments encoding the human PRLs which were generated by RT-PCR from H9 cells and confirmed by sequence analysis. Activities of the purified recombinant PRL proteins in dephosphorylating DiFMUP in the absence or presence of various inhibitors were measured following established procedure.
To assess whether sodium stibogluconate is an inhibitor of oncogenic PRL phosphatases, its effects on the PTPase activity of recombinant PRLs were evaluated by in vitro PTPase assays.

The conditions of series [1]: cited from earlier work.
In the next series the target is T2, GST/SHP-1 fusion protein (Mus musculus, UniProt P29351).
T2 construct: made in house
The experiment in a line: In vitro PTPase assay, dephosphorylation of a synthetic phosphotyrosine peptide. Conditions: Sb concentration of 10 μg/ml. The format is biochemical. As for the experimental part:
In vitro PTPase activities were measured using the commercial protein tyrosine phosphatase assay kit (UBI) following established procedure. This assay measures the in vitro dephosphorylation of a synthetic phosphotyrosine peptide (R-R-L-I-E-D-A-E-pY-A-A-R-G). Briefly, 0.01 μg of GST/PTPase fusion protein was incubated in 50 μl of Tris buffer (10 mM Tris, […]) at 22° C. for 10 minutes, followed by addition of 0.2 mM of the phosphotyrosine peptide and incubation at 22° C. for 18 hours. 100 μl of Malachite Green solution was added and incubated for 5 minutes, and the absorbance at 660 nm was measured after 5 minutes.

In series [2] the target is T3, intracellular Flag-PRL-2 in WM9 cells (Homo sapiens, UniProt Q12974).
T3 construct: expressed in transfected cells; host or cells: WM9 human melanoma cells
The series can be described thus: PTPase activity of anti-Flag immunocomplexes from WM9 transfectants. Conditions: treated 5 minutes. It counts as cell-based. As for the experimental part: FIG. 6C. Sodium stibogluconate inactivates intracellular PRL-2 in WM9 human melanoma cells. A. Relative PTPase activities of anti-Flag immunocomplexes from WM9 cells transfected with the control vector (V) or Flag-PRL-2 expression construct and then treated with different amounts of sodium stibogluconate for 5 minutes B. Relative amounts of Flag-PRL-2 in the immunocomplexes as determined by SDS-PAGE/Western blotting. C. Relative PTPase activities of anti-MKP1 immunocomplexes from WM9 cells treated with different amounts of sodium stibogluconate for 5 minutes. Relative amounts of MKP1 in the immunocomplexes as determined by SDS-PAGE/Western blotting.
Flag-PRL-2 protein was detected in anti-Flag immunocomplexes from WM9 cells tranfected with an expression construct of Flag-PRL-2 but not in those from vector transfectants expected.

Series [3] concerns Jak2 and Stat5 tyrosine phosphorylation. The experiment in a line: IL-3-induced Jak2/Stat5 tyrosine phosphorylation in Baf3 cells. The format is cell-based, murine. The method, then:
For induction of cellular protein phosphorylation by sodium stibogluconate or pervanadate, Baf3 cells were incubated in 0.1% FCS RPMI 1640 medium at 37° C. for 16 hours. The cells were then washed twice in RPMI 1640 medium and incubated with sodium stibogluconate or pervanandate (0.1 mM) for various times prior to termination by lysing cells in cold lysis buffer (50 mM Tris, pH 7.4; 150 mM NaCl; 0.2 mM Na3VO4; 20 mm NaF; 1% NP40; 2 mM PMSF; 20 μg/ml of aprotinin and 1 mM of sodium molybdic acid). To determine the effect of sodium stibogluconate or potassium antimonyl tartrate on IL-3-induced Jak/Stat phosphorylation, Baf3 cells were deprived of the growth factor for 16 hours in 0.1% FCS RPMI 1640 medium and then incubated with or without sodium stibogluconate or potassium antimonyl tartrate for 10 minutes. IL-3 was next added to the cell suspension and incubated for various times. The cells were then harvested and lysed in cold lysis buffer at 4° C. for 45 minutes. Total cell lysates (TCL) were separated in SDS-PAGE gels, blotted onto nitrocellulose membrane (Schleicher & Schuell), probed with specific antibodies and detected using an enhanced chemiluminescence kit (ECL, Amersham).
A functional role of SHP-1 in dephosphorylating the Jak family kinases during cytokine signaling has been documented. To determine whether sodium stibogluconate inhibits SHP-1 in vivo, the effect of the drug on IL-3-induced Jak2 tyrosine phosphorylation in Baf3 cells was examined. Baf3 cells deprived of IL-3 were incubated with or without the drug for 10 minutes and then stimulated with IL-3 for various times. IL-3 induced tyrosine phosphorylation of Jak2 and Stat5 in Baf3 cells in the presence or absence of the drug. However, the phosphotyrosine levels of Jak2 and Stat5 in the presence of the drug were about twice of those in cells without drug treatment as determined by densitometry analysis.

The subject of series [4] is RC45 cells (Renal cell carcinoma). The experiment in a line: Growth inhibition of human tumor cell lines. It counts as cell-based. The conditions noted are these: SS 12.5 μg/ml, IFNα 1,000 u/ml, alone or combined.
Series [5] concerns WiT49-N1 cells (Wilms tumor). The experiment in a line: Growth inhibition of human tumor cell lines (MTT). It counts as cell-based. The conditions noted are these: SS 12.5 μg/ml, IFNα 1,000 u/ml, alone or combined. From the text:
FIG. 9 illustrates growth inhibition of human cell lines of non-hematopoietic malignancies by sodium stibogluconate and/or IFNα. Percentage of growth inhibition of WM9 (A), DU145 (B), MDA231 (C) and WiT49-N1 (D) in the absence or presence of various amounts of sodium stibogluconate and/or IFNα (1,000 u/ml) in day 6 cultures as measured by MTT assays.

In a further series the test system is WM9 cells. The experiment in a line: Apoptotic cells by Annexin V/propidium iodide assay (fluorescent microscopy). Conditions: 3 days, control 5%. It counts as cell-based, human. The method, then:
Detection of apoptotic cells by Annexin V/propidium iodide assay. Annexin V staining of exposed membrane phospholipid phosphatidylserine (PS) was done using the Annexin V assay kit (Pharmingen, San Diego, Calif.). Briefly, U266 or WM9 cells were cultured in the 10% FCS RPMI 1640 medium in the absence or presence of sodium stibogluconate, IFNα, or both for 3 days. Cells were then washed in PBS twice and stained in binding buffer (10 mM Hepes, pH 7.4; 140 mM NaCl; 2.5 mM CaCl2) containing Annexin V-FITC and propidium iodide for 15 min. The reaction was stopped by adding 10 volumes of binding buffer and analyzed by FACS (Becton Dickinson Facsvantage) or fluorescent microscopy.

T2 sequence (P29351 whole entry, the tested form may be a part): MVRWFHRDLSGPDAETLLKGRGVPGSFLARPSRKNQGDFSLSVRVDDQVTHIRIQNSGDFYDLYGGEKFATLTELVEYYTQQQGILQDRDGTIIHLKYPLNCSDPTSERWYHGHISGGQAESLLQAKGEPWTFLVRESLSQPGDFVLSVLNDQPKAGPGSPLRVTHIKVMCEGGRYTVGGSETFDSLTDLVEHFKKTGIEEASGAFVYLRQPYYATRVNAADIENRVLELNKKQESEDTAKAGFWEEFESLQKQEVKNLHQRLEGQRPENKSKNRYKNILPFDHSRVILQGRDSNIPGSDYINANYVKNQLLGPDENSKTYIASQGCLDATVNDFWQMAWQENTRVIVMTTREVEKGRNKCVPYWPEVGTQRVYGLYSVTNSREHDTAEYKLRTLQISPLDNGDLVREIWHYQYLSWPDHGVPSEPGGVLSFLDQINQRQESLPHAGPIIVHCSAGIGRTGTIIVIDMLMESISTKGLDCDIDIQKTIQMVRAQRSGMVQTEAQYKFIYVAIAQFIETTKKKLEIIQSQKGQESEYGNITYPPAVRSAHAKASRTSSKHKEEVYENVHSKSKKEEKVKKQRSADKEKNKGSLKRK

For `O.O.O.O.O.O.O.O.O.O=C([O-])[C@@H]1[O][Sb]2([O-])([O][Sb]34([OH])[O][C@H]([C@H](O)CO)[C@H]([O]3)[C@H](C(=O)[O-])[O]4)[O][C@H]([C@H](O)CO)[C@@H]1[O]2.[Na+].[Na+].[Na+]` [sodium stibogluconate], the “reversibility of PRL-2 inactivation” value at recombinant PRL-2 is listed as “irreversibly inhibits”. Also, in series [1] (in 16 hours), the “blood levels, of peak value” was “around 1%”. For the same compound, in series [1] (in the first 6 hours), the “excreted (renal clearance)” value is “more than 80%”. Besides, the serum levels in series [1] (standard dosage 10-20 mg/kg/day) was at least 10000 ng/mL. For the same compound, the “effect on recombinant SHP-1” value at GST/SHP-1 fusion protein is “inactivated”. Besides, the “PTPase activity of Flag-PRL-2 immunocomplexes from treated WM9 transfectants” value in series [2] is reported as “only low levels of PTPase activity”. Further, the “phosphotyrosine levels of Jak2 and Stat5 relative to cells without drug treatment” value in series [3] (IL-3 stimulated, drug 10 minutes before, densitometry) is recorded as “about twice”. Besides, in series [3] (without IL-3, 37° C. for 16 hours), the “Jak2/Stat5 tyrosine phosphorylation by the drug alone” value was “failed to induce”.
For IFNα, the “% of growth inhibition by day 6 (±s.d.)” value is on record as 70 (15) % in series [4] and 22 (11) % in series [5]. Besides, the “percentage of apoptotic cells” value with WM9 cells is 15%.
